The values that follow come from ChEMBL document CHEMBL1130614, “Design and synthesis of a pyridone-based phosphotyrosine mimetic” (Bioorg Med Chem Lett, 1998).

A short description of assay [1]: Inhibition of CD19 phosphopeptide binding to p85 N-terminal SH2 domain at 50 uM.
Assay [2] in a line: Inhibition of CD19 phosphopeptide binding to p85 N-terminal SH2 domain at 20 uM.
Assay [3] addresses Platelet-derived growth factor receptor (Homo sapiens, UniProt P09619+P16234). Nature of the assay: Inhibition of PDGF-beta receptor binding to p85 SH2-domain. The assay is classed as protein-complex assay.

A word on the inhibition: it is the share of the control response that was lost under treatment. A low value points to a response near the control. Compound `CCCCN(CCCC)C(=O)[C@H](C)NC(=O)[C@@H](NC(=O)[C@H](Cc1ccn(CP(=O)(O)O)c(=O)c1)NC(C)=O)C(C)C` yielded an inhibition in assay [1] of 50%.

One may read the IC50 as the concentration needed to halve the response being measured. A higher IC50 goes with a need for much substance. With `CCCCN(CCCC)C(=O)[C@H](C)NC(=O)[C@@H](NC(=O)[C@H](Cc1ccc(OP(=O)(O)O)cc1)NC(C)=O)C(C)C`, in assay [2], the inhibition was 98%. The same compound gave an IC50 in assay [3] of 77 nM.
